From patent US20210032598A1, “ACTIVATION-INDUCED TISSUE-EFFECTOR CELLS SUITABLE FOR CELL THERAPY AND EXTRACELLUAR VESICLES DERIVED THEREFROM” (Capricor, Inc., priority 2018, published 2021)

How the values were obtained:
[1] = system: β-catenin levels in explant-derived cells (EDCs); test: β-catenin ELISA in explant-derived cells (EDCs); type: cell-based, human; conditions: EDCs from Donor1 and Donor12; BIO for 72 hours compared with sphere formation
[2] = system: β-catenin levels in kidney cortex cells; test: β-catenin levels in kidney cortex cells; type: cell-based; conditions: FIG. 18B
[3] = system: β-catenin levels in immortalized CDCs; test: Total β-catenin ELISA in immortalized CDCs; type: cell-based, human; conditions: SV40 T+t immortalized CDCs from Donor2; 5 μM BIO for 72 hours vs 0 μM
Description: (§1) Cell lysate and protein assay. 4×10^5 cells were collected and pelleted at 1,000 rpm for 5 min at 4° C. Cell pellets were thoroughly mixed with 1× lysis buffer (Affymetrix eBioscience InstantOne ELISA kit) by vortexing and rotating for 10 min at room temperature. Protein lysate was isolated from the cell lysate mixture after centrifugation at 14,000 rpm for 15 min at 4° C. Protein concentration was determined by DC™ Protein Assay kit (Bio-Rad).
(§2) ELISA. Protein collection and protein concentration determination were as described above. Total β-catenin ELISA was performed according the protocol described with final sample concentration of 0.01 mg/ml and positive control of 0.1 mg/ml (ThermoFisher eBioscience InstantOne™ ELISA).

[4] = system: CD90 expression in CDCs; test: Flow cytometry of CD90 expression in CDCs; type: cell-based, human
Description: Referring to FIG. 2, CDCs from two donors (Donor1 and Donor12) were prepared as described herein. The attached CDCs were treated with 30 μM CHIR (Selleckchem, Cat. #S1263), a GSK3β inhibitor, or with no treatment for 72 hours. The cells were then collected, washed with 1% bovine serum albumin (BSA) in 1× phosphated-buffered saline (PBS), and stained with FITC Mouse Anti-Human CD90 (BD Biosciences, Cat. #555595). Flow cytometry was then conducted in BD FACSCanton™ II machine to measure CD90 expression in cells.
(§3) Referring to FIG. 9B, CDCs from Donor 5 were treated with different concentrations of BIO (Sigma-Aldaich, Cat #B1685), a GSK3β inhibitor, for 72 hours. The cells were then collected and lysed with 1× lysis buffer supplied Total β-catenin ELISA (Affymetrix eBioscience InstantOne™ ELISA, Cat. #85-86141-11). Total β-catenin ELISA was performed as per manufacturer's instructions, except that 0.01 mg/mL final protein concentration was used in the assay.
Flow cytometry. Cells were harvested and counted (2×10^5 cells per condition). Cells were washed with 1% bovine serum albumin (BSA) in 1× Phosphated-buffered saline (PBS), and stained with the appropriate antibody (BD Pharmingen) for 1 hr at 4° C. The cells were then washed again and resuspended in 1% BSA in 1×PBS. BD Cytofix/Cytoperm™ kit was used for cell permeabilization before staining, such as LRP5/6 staining. […]

[5] = system: β-catenin levels in CDCs; test: Total β-catenin ELISA in CDCs; type: cell-based, human
Description: as §3
Referring to FIG. 10, the effect of BIO (as measured by sustained β-catenin activation per ELISA) was measured in CDCs from Donor10. Zero hour is immediately drug wash-off time point following a 72 hour of 5 μM BIO treatment period.
as §1, §2

[6] = system: mice with acute myocardial infarction; test: Mouse model of acute myocardial infarction, change in left ventricular ejection fraction (echocardiography); type: in vivo, mouse (SCID beige); conditions: 0.1 mg drug injected to heart; measured three weeks after surgery
Description: Briefly, 8-week old male severe combined immunodeficient (SCID) beige mice were anesthetized with isoflurane. Following surgical preparation, a 2 cm vertical incision was performed in the midclavicular line for a lateral thoracotomy. The left anterior descending was ligated using 7-0 silk. Animals then received intramyocardial injections of injected at two peri-infarct sites with 10^5 cells (or phosphate buffered saline as a vehicle) in a total of 20 μl (10 μl/site). Echocardiography measurements were taken (to measure change left ventricular ejection fraction) at day 1 post and week 3 post infarction.
Acute myocardial infarction was applied to the three-month-old male severe combined immunodeficient (SCID)—beige mice as previously described. 1×10^5 desired cells or 20 μl of 14 mM drug (BIO or JW67) or exosomes were injected to the SCID heart for rescuing.
Echocardiography. Echocardiography study was performed in the SCID beige in 24 hr (baseline) and 3 weeks after surgery using Vevo 3100 or 770 Imaging System (Visual Sonics) as described^8. The average of the left ventricular ejection fraction was analyzed from multiple left ventricular end-diastolic and left ventricular end-systolic measurements.

[7] = system: CD90 expression in immortalized CDCs; test: Flow cytometry of CD90 expression in immortalized CDCs; type: cell-based, human; conditions: Wnt3a for 72 hours, vs vehicle
Description: Referring to FIG. 3-5, CDCs from immortalized Donor2 were plated on either fibronectin (FN; VWR, Cat. #356009)-coated or CellBIND® (CB)-coated flasks. Attached cells were treated with Wnt3a or with PBS vehicle (ddH2O) for 72 hours. The cells were then analyzed using flow cytometry for CD90 expression with the same protocol as described herein.
Flow cytometry. Cells were harvested and counted (2×10^5 cells per condition). Cells were washed with 1% bovine serum albumin (BSA) in 1× Phosphated-buffered saline (PBS), and stained with the appropriate antibody (BD Pharmingen) for 1 hr at 4° C. The cells were then washed again and resuspended in 1% BSA in 1×PBS. BD Cytofix/Cytoperm™ kit was used for cell permeabilization before staining, such as LRP5/6 staining. The flow cytometry was performed in BD FACSCanto™ II machine.

## O=C1Nc2cc(Br)ccc2/C1=C1/Nc2ccccc2/C1=N\O [BIO, 6-bromoindirubin-3′-oxime]
[1]
  β-catenin expression: equal or better enhanced β-catenin expression
[2]
  β-catenin levels: further increases β-catenin levels
[3]
  β-catenin restoration: successful β-catenin restoration
[4]; CDCs from Donor5, increasing BIO concentrations
  CD90 levels: decreasing CD90 levels with increasing BIO concentrations
[5]; CDCs from Donor5, different concentrations of BIO for 72 hours
  levels of β-catenin: increased with increasing BIO concentration
[5]; CDCs from Donor10, after 72 hour 5 μM BIO treatment
  time of peak β-catenin activation after drug washout: 24 h
[5]; FIG. 10, β-catenin activation per ELISA
  duration of effect of BIO treatment after washout: at least 24 hours
[5]; non-potent CDCs from Donor5, 10 μM BIO for 72 hours vs 0 μM
  β-catenin restoration: successful β-catenin restoration
[5]; non-potent CDCs from Donor6-2, 5 μM BIO for 72 hours vs control vehicle
  β-catenin restoration: successful β-catenin restoration
[6]
  cardiac recovery (cardiac ejection fraction change): improves cardiac recovery

## Cc1cnc(-c2cnc(NCCNc3ccc(C#N)cn3)nc2-c2ccc(Cl)cc2Cl)[nH]1 [CHIR, 6-[[2-[[4-(2,4-Dichlorophenyl)-5-(5-methyl-1H-imidazol-2-yl)-2-pyrimidinyl]amino]ethyl]amino]-3-pyridinecarbonitrile]
[4]; 30 μM CHIR for 72 hours, CDCs from Donor1 and Donor12, vs no treatment
  CD90 levels: decreased the CD90 levels

## O=C1Nc2ccccc2C12OCC1(CO2)COC2(OC1)C(=O)Nc1ccccc12 (centres unmarked) [JW67, Trispiro[3H-indole-3,2′-[1,3]dioxane-5′5″-[1,3]dioxane-2″,3′″-[3H]indole]-2,2′″(1H,1′″H)-dione(9Cl)]
[6]
  cardiac recovery (cardiac ejection fraction change): improves cardiac recovery

B1: Wnt3a: activator of the Wnt signaling pathway (protein, UniProt P56704 19-352, looked up)
Protein Wnt-3a: SYPIWWSLAVGPQYSSLGSQPILCASIPGLVPKQLRFCRNYVEIMPSVAEGIKIGIQECQHQFRGRRWNCTTVHDSLAIFGPVLDKATRESAFVHAIASAGVAFAVTRSCAEGTAAICGCSSRHQGSPGKGWKWGGCSEDIEFGGMVSREFADARENRPDARSAMNRHNNEAGRQAIASHMHLKCKCHGLSGSCEVKTCWWSQPDFRAIGDFLKDKYDSASEMVVEKHRESRGWVETLRPRYTYFKVPTERDLVYYEASPNFCEPNPETGSFGTRDRTCNVSSHGIDGCDLLCCGRGHNARAERRREKCRCVFHWCCYVSCQECTRVYDVHTCK
[7]; immortalized Donor2 CDCs on CellBIND (CB)-coated flasks
  CD90 level: no such effect is observed
[7]; immortalized Donor2 CDCs on fibronectin (FN)-coated flasks
  CD90 level: decreased the CD90 level
